In ChEMBL document CHEMBL4627279, “Discovery and structure-activity relationships of spiroindolines as novel inducers of oligodendrocyte progenitor cell differentiation” (Bioorg Med Chem, 2020):
Active and inactive are the calls of the source. The rule behind the calls is not given here.

What was measured:
cells [1] = details: Rattus norvegicus
Description: Induction of rat oligodendrocyte precursor cells differentiation assessed as myelin basic protein expression by immunostaining based assay

Mus musculus = assay: Immunosuppressive activity in MOG (35 to 55 residues)/pertussis toxin-induced experimental autoimmune encephalomyelitis C57BL/6 mouse model assessed as reduction in development of clinical symptoms at 50 mg/kg, po administered once a day starting from day 3 post immunization upto 17 days; type: functional, organism-based
[2] = AUClast in C57BL/6 mouse at 10 mg/kg, po administered as a single dose; type: ADME, organism-based; design: dose 10 mg/kg, route oral, time 0 - last; details: in vivo
[3] = Volume of distribution in C57BL/6 mouse at 1 mg/kg, iv administered as a single dose; type: ADME, organism-based; details: in vivo
in vitro [4] = details: human
Description: Metabolic stability in human assessed as parent compound remaining after 30 mins

cells [5] = details: Rattus norvegicus; remark: listed apart in the source
Description: Induction of rat oligodendrocyte precursor cells differentiation assessed as myelin basic protein expression by immunostaining based assay relative to control

physchem = details: buffer, pH 7.4
Description: Lipophilicity, log D of the compound at pH 7.4

Cytochrome P450 3A4 = Cytochrome P450 3A4 (Homo sapiens, UniProt P08684); assay: Inhibition of CYP3A4 in human liver microsomes; type: ADME
Sequence of Cytochrome P450 3A4 (P08684 whole entry): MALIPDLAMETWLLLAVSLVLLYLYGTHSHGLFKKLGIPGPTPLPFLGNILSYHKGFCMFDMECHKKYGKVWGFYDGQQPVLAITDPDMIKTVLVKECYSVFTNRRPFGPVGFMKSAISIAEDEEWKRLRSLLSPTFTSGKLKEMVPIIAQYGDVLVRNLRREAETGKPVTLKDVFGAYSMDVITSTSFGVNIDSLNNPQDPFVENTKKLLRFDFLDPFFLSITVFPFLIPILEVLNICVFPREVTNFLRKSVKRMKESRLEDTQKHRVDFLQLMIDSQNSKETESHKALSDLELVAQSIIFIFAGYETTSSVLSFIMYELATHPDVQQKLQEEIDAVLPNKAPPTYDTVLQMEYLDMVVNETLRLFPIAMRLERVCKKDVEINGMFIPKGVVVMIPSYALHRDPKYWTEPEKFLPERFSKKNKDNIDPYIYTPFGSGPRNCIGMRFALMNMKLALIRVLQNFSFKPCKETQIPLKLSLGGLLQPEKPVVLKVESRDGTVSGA

[6] = Plasma clearance in C57BL/6 mouse at 1 mg/kg, iv administered as a single dose; type: ADME, organism-based
Cytochrome P450 2C9 = Cytochrome P450 2C9 (Homo sapiens, UniProt P11712); assay: Inhibition of CYP2C9 in human liver microsomes; type: ADME
Sequence of Cytochrome P450 2C9 (P11712 whole entry): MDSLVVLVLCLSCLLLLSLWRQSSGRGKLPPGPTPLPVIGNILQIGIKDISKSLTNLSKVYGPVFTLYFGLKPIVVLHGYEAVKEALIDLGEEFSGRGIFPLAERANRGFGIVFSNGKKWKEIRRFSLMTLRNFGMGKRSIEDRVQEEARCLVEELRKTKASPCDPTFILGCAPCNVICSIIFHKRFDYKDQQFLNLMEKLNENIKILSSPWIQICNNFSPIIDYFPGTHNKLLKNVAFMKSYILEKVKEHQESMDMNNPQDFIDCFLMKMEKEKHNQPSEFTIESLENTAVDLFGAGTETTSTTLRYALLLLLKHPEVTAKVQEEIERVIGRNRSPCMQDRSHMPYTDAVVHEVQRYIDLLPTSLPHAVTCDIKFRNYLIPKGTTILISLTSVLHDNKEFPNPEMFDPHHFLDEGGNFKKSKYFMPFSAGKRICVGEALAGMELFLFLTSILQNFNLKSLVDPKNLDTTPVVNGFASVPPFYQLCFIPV

hERG (KCNH2) = hERG (KCNH2) (Homo sapiens, UniProt Q12809); assay: in vitro
Sequence of hERG (KCNH2) (Q12809 whole entry): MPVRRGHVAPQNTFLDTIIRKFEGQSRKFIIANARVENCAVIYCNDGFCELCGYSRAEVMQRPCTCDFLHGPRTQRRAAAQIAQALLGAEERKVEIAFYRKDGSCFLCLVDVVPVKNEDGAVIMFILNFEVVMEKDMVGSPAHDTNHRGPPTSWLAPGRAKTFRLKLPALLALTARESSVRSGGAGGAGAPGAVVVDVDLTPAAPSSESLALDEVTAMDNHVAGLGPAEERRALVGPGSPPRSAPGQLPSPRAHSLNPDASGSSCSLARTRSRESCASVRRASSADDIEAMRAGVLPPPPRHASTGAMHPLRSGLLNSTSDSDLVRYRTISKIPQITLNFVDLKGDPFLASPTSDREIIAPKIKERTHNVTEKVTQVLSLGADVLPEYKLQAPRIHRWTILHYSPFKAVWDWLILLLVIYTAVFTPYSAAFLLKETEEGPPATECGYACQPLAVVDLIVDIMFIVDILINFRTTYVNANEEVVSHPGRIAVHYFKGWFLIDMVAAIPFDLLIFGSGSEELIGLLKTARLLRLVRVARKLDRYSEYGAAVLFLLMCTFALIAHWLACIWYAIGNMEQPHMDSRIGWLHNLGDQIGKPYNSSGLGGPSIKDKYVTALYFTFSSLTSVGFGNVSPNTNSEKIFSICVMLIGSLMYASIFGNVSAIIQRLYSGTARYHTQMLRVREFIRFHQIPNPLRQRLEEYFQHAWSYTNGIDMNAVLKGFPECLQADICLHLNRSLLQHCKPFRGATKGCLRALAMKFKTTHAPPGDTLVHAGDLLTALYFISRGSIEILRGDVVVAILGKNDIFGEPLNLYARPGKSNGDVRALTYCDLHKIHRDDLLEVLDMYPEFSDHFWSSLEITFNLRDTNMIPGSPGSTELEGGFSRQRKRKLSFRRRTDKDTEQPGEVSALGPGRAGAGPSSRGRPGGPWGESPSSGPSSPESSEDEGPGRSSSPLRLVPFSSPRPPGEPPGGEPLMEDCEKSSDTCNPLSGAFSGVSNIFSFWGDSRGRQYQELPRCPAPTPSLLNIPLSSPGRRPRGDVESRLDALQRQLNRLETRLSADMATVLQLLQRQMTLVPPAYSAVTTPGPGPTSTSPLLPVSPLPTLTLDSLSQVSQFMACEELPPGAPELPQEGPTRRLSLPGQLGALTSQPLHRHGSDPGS
Description: Inhibition of human ERG at 10 uM

[7] = Brain to plasma permeability coefficient, Kp of the compound in C57BL/6 mouse after 4 hrs; type: ADME
in vitro [8] = details: mouse
Description: Metabolic stability in mouse assessed as parent compound remaining after 30 mins

[9] = Elimination half life in C57BL/6 mouse at 10 mg/kg, po administered as a single dose; type: ADME, organism-based; details: in vivo, read-out: beta t1/2 (converted)
[10] = Brain to plasma permeability coefficient, Kp of the compound in C57BL/6 mouse after 0.5 hrs; type: ADME
[11] = Cmax in C57BL/6 mouse at 10 mg/kg, po administered as a single dose; type: ADME, organism-based; design: dose 10 mg/kg, route oral; details: in vivo
CYP2D6 = CYP2D6 (Homo sapiens, UniProt P10635); assay: Inhibition of CYP2D6 in human liver microsomes at 10 uM; type: ADME
Sequence of CYP2D6 (P10635 whole entry): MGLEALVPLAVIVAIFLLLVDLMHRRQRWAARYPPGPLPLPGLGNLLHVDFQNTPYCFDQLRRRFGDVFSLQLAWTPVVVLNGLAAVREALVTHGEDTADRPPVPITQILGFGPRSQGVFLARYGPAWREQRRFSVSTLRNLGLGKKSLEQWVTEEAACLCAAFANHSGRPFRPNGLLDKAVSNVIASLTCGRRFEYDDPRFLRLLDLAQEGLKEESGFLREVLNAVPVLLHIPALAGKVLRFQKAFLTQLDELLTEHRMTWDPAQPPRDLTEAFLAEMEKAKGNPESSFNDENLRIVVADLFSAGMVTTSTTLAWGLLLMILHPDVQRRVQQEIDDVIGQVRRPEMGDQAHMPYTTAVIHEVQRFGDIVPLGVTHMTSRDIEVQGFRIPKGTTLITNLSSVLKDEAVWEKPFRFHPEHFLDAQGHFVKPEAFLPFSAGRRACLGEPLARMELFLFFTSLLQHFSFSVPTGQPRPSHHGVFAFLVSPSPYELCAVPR

[12] = Oral bioavailability in C57BL/6 mouse at 10 mg/kg administered as a single dose; type: ADME, organism-based; details: in vivo

SMILES | EC50 (cells [1]) [nM] | other results
O=C1c2ccccc2NC12CCN(CC1CCOCC1)CC2 | 550 | 
CC(C)Oc1ccc2c(c1)C(=O)C1(CCN(CC3CCOCC3)CC1)N2 | 59 | 
CC(C)c1ccc2c(c1)C(=O)C1(CCN(CC3CCOCC3)CC1)N2 | 4.6 | 
CCCN1CCC2(CC1)Nc1ccc(C(C)C)cc1C2=O | 550 | 
CC(C)c1ccc2c(c1)C(=O)C1(CCN(Cc3ccccc3)CC1)N2 | 330 | 
CC(C)c1ccc2c(c1)C(=O)C1(CCN(C(=O)C3CC3)CC1)N2 | > 10000 | 
CC(C)c1ccc2c(c1)C(=O)C1(CCN(CC3CCCC3)CC1)N2 | 25 | 
CC(C)(C)c1ccc2c(c1)C(=O)C1(CCN(CC3CCOCC3)CC1)N2 | 9.9 | 
CC(C)CN1CCC2(CC1)Nc1ccc(C(C)C)cc1C2=O | 330 | 
CC(C)c1ccc2c(c1)C(=O)C1(CCN(CCc3ccccc3)CC1)N2 | 540 | 
CN1c2ccc(C(F)(F)F)cc2C(=O)C12CCN(CC1CCOCC1)CC2 | 9.3 | 
O=C1c2cc(O)ccc2NC12CCN(CC1CCOCC1)CC2 | > 10000 | 
COc1ccc2c(c1)C(=O)C1(CCN(CC3CCOCC3)CC1)N2 | 970 | 
O=C1c2cc(C(F)(F)F)ccc2OC12CCN(CC1CCOCC1)CC2 | 480 | 
CC(C)c1ccc2c(c1)C(=O)C1(CCN(CC3CCC3)CC1)N2 | 16 | 
CC(C)c1ccc2c(c1)C(=O)C1(CCN(CC3CCCCC3)CC1)N2 | 37 | 
COC1c2cc(C(F)(F)F)ccc2NC12CCN(CC1CCOCC1)CC2 (stereo unspecified) | 5.7 | 
CN1c2ccc(C(F)(F)F)cc2CC12CCN(CC1CCOCC1)CC2 | 7100 | 
FC(F)(F)c1ccc2c(c1)CC1(CCN(CC3CCOCC3)CC1)N2 | 240 | 
O=C1c2cc(C(F)(F)F)ccc2CC12CCN(CC1CCOCC1)CC2 | 110 | 
OC1c2cc(C(F)(F)F)ccc2NC12CCN(CC1CCOCC1)CC2 (stereo unspecified) | 520 | 
O=C1c2cc(C(F)(F)F)ccc2NC12CCN(CC1CCOCC1)CC2 | 3.2 | Activity (Mus musculus): Active; AUC(0-t) [2]: 1780 ng·h/mL; Vd [3]: 31.5 L/kg; remaining at 0.5 h (in vitro [4]): 35%; Emax (cells [5]): 240%; logD (physchem): 2.8; IC50 (Cytochrome P450 3A4): > 18000 nM; clearance [6]: 79.2 mL/min/kg; IC50 (Cytochrome P450 2C9): > 18000 nM; inhibition at 10 µM (hERG (KCNH2)): 94%; Kp at 4 h [7]: 50.9; remaining at 0.5 h (in vitro [8]): 68%; half-life [9]: 6.4 h; Kp at 0.5 h [10]: 25.5; Cmax [11]: 308 ng/mL; inhibition at 10 µM (CYP2D6): 70%; bioavailability [12]: 116%
CC(C)c1ccc2c(c1)C(=O)C1(CCN(S(=O)(=O)C3CC3)CC1)N2 | > 10000 | 
O=C1c2cc(Cl)ccc2NC12CCN(CC1CCOCC1)CC2 | 320 | 
